# According to publication PMC12526212, “Novel Isolongifolenone-Based Caprolactam Derivatives as Potential Anticancer Agents via the p53/mTOR/Autophagy Pathway” (Molecules, 2025):
# Read-outs that look alike come from different tables or passages of the source.
# Assays:
# MCF-7 xenograft = assay: Zebrafish MCF-7 xenograft model; format: in vivo; settings: 48 h, compared with PBS control; Dox 1.0 μM
# Description: Zebrafish have become a well-established model for both anticancer drug discovery and toxicity evaluation. This animal model affords several unique advantages, including rapid development, optical transparency, and genetic conservation with humans. These features make zebrafish particularly suitable for high-throughput in vivo screening and mechanistic studies in oncology research. Tumor burden in zebrafish xenografts is commonly quantified from Dil/DiI-labeled fluorescence area or integrated intensity, which correlates with cell number and treatment response. To assess the in vivo antitumor efficacy of compound E10, we established a zebrafish xenograft model. Briefly, CM-Dil-labeled MCF-7 cells (showing red fluorescence) were microinjected into the yolk sacs of zebrafish embryos. The xenografted zebrafish were then randomly assigned into five groups: three E10-treatment groups (0.5 µg/mL, 1.0 µg/mL, and 2.0 µg/mL), a Doxorubicin (Dox) positive control group, and a PBS negative control group.
# All experimental procedures were approved by ACUC of Shandong Academy of Sciences (Animal Care and Use Committee). Wild-type AB of zebrafish were obtained from Biology Institute, Qilu University of Technology. The embryos were incubated in special embryonic medium (0.17 mM KCl, 5.0 mM NaCl, 0.4 mM CaCl2, and 0.16 mM MgSO4) at 28 °C. 48 h-old zebrafish embryos were microinjected with CM-Dil labelled MCF-7 cells under stereomicroscopy. After injection, zebrafish embryos with the same injection spot were randomly planted on a six-well plate. These xenograft zebrafish were sorted into four groups of about 15–20 zebrafish each and treated with 0.5, 1.0, 2.0 μg/mL of compound E10 for 48 h, 1.0 μM doxorubicin as a positive control group. After treatment, the fluorescence intensity of living cells was examined with laser confocal microscopy (Olympus, Tokyo, Japan).
# MCF-7 = assay: CCK-8 antiproliferative assay, MCF-7; format: cell-based; settings: Homo sapiens, read-out: IC50 MCF-7
# Protocol: (§1) After synthesis and characterization, the isolongifolenone bicyclocaprolactam derivatives were evaluated for their in vitro antiproliferative activity against three cancer cell lines (MCF-7, HepG2, A549) using a CCK-8 assay. […] In general, the antiproliferative activities of most of these compounds were similar, irrespective of whether electron-withdrawing or electron-donating substituents were introduced in the phenoxy ring.
# (§2) Three cancer cell lines (human breast adenocarcinoma cells MCF-7, human lung adenocarcinoma epithelial cells A549, and human hepatocellular carcinoma cells HepG2) were obtained from the Cell Bank of the Chinese Academy of Sciences (Shanghai, China). LO2 human normal liver cells were also purchased from STEM RECELL (Beijing, China, STM-CL-5770). The anti-proliferation activity of compounds was tested on three cancer cell lines. The cytotoxicity of compounds as tested on normal cell line (human normal liver cells LO2). Cells were seeded at a density of 5000 cells per well in 96-well plates. Natural product piperlongumine was used as the positive control. All experiments were performed in triplicate. Three cancer cell lines were cultured in High DMEM medium or RIPM 1640 containing 10% FBS (Sijiqing, Hangzhou, China) and 1% antibiotics at 37 °C in a 5% CO2 incubator. The experimental cells were seeded in a 96-well plate at 5000 cells per well and incubated for 24 h. The old medium was replaced with experimental medium, and the cells were cultured for 48 h. Afterward, 10 µL of CCK-8 solution was added to each well, and the cells were incubated for 3 h. The absorbance at 450 nm was measured using a microplate reader.
# LO2 = assay: CCK-8 cytotoxicity on normal cell line LO2; format: cell-based; settings: Homo sapiens, L02; normal liver cells, CCK-8, 48 h, mean ± SD of three experiments
# Protocol: as §2
# A549 = assay: CCK-8 antiproliferative assay, A549; format: cell-based; settings: Homo sapiens, read-out: IC50 A549
# Protocol: as §1, §2
# HepG2 = assay: CCK-8 antiproliferative assay, HepG2; format: cell-based; settings: Homo sapiens, read-out: IC50 HepG2
# Protocol: as §1, §2
# [1] = system: three cancer cell lines (MCF-7, HepG2, A549); assay: CCK-8 antiproliferative assay, three cancer cell lines together; format: cell-based, human
# Protocol: as §1, §2
# [2] = MCF7, CCK-8, 48 h, mean ± SD of three experiments
# [3] = A549, CCK-8, 48 h, mean ± SD of three experiments
# [4] = HepG2, CCK-8, 48 h, mean ± SD of three experiments
Compound,fluorescence intensity of xenograft (MCF-7 xenograft),IC50 (MCF-7; [2]) [nM],IC50 (LO2) [µM],IC50 (A549; [3]) [µM],IC50 (HepG2; [4]) [µM],antiproliferative / anticancer activity [1],"IC50 (MCF-7; MCF7, 48 h) [nM]","IC50 (A549; A549, 48 h) [µM]","IC50 (HepG2; HepG2, 48 h) [µM]"
"COc1cccc2c1C(=O)c1c(O)c3c(c(O)c1C2=O)C[C@@](O)(C(=O)CO)C[C@@H]3O[C@H]1C[C@H](N)[C@H](O)[C@H](C)O1 [Dox, Doxorubicin, reference compound]",notable reduction in fluorescence intensity,–,–,–,–,–,–,–,–
"CC1(C)C2=CC(=O)N(C(=O)C=Cc3ccc(F)cc3)CC(C)(C)C23CCC1C3 (stereo not drawn) [E1, 5,5,9,9-Tetramethyl-3-(3-(4-fluorophenyl)acryloyl)-4,5,6,7,8,9-hexahydro-5a,8-methanobenzo[d]azepin-2(3H)-one]",–,9180 ± 110,> 20,11.7 ± 0.16,> 20,–,–,–,–
"Cc1ccc(C=CC(=O)N2CC(C)(C)C34CCC(C3)C(C)(C)C4=CC2=O)cc1 (stereo not drawn) [E2, 5,5,9,9-Tetramethyl-3-(3-(4-tolyl)acryloyl)-4,5,6,7,8,9-hexahydro-5a,8-methanobenzo[d]azepin-2(3H)-one]",–,1290 ± 40,> 20,3.18 ± 0.16,6.6 ± 0.07,–,–,–,–
"CC1(C)C2=CC(=O)N(C(=O)C=Cc3ccc(Cl)cc3)CC(C)(C)C23CCC1C3 (stereo not drawn) [E3, 5,5,9,9-Tetramethyl-3-(3-(4-chlorophenyl)acryloyl)-4,5,6,7,8,9-hexahydro-5a,8-methanobenzo[d]azepin-2(3H)-one]",–,18970 ± 130,> 20,16.9 ± 0.27,7.09 ± 0.33,–,–,–,–
"CC1(C)C2=CC(=O)N(C(=O)C=Cc3ccc(C(F)(F)F)cc3)CC(C)(C)C23CCC1C3 (stereo not drawn) [E4, 5,5,9,9-Tetramethyl-3-(3-(4-(trifluoromethyl)phenyl)acryloyl)-4,5,6,7,8,9-hexahydro-5a,8-methanobenzo[d]azepin-2(3H)-one]",–,16740 ± 160,> 20,14.98 ± 0.1,> 20,–,–,–,–
"Cc1ccccc1C=CC(=O)N1CC(C)(C)C23CCC(C2)C(C)(C)C3=CC1=O (stereo not drawn) [E5, 5,5,9,9-Tetramethyl-3-(3-(2-tolyl)acryloyl)-4,5,6,7,8,9-hexahydro-5a,8-methanobenzo[d]azepin-2(3H)-one]",–,2860 ± 120,> 20,3.89 ± 0.44,1.86 ± 0.09,–,–,–,–
"CC1(C)C2=CC(=O)N(C(=O)C=Cc3cccc(F)c3)CC(C)(C)C23CCC1C3 (stereo not drawn) [E6, 5,5,9,9-Tetramethyl-3-(3-(3-fluorophenyl)acryloyl)-4,5,6,7,8,9-hexahydro-5a,8-methanobenzo[d]azepin-2(3H)-one]",–,5320 ± 110,> 20,5.34 ± 0.16,5.96 ± 0.05,–,–,–,–
"CC1(C)C2=CC(=O)N(C(=O)C=Cc3cccc(Cl)c3)CC(C)(C)C23CCC1C3 (stereo not drawn) [E7, 5,5,9,9-Tetramethyl-3-(3-(3-chlorophenyl)acryloyl)-4,5,6,7,8,9-hexahydro-5a,8-methanobenzo[d]azepin-2(3H)-one]",–,2670 ± 110,> 20,2.28 ± 0.1,6.67 ± 0.06,–,–,–,–
"COc1ccccc1C=CC(=O)N1CC(C)(C)C23CCC(C2)C(C)(C)C3=CC1=O (stereo not drawn) [E9, 5,5,9,9-Tetramethyl-3-(3-(2-methoxyphenyl)acryloyl)-4,5,6,7,8,9-hexahydro-5a,8-methanobenzo[d]azepin-2(3H)-one]",–,2220 ± 70,> 20,2.13 ± 0.16,2.17 ± 0.24,–,–,–,–
"CC1(C)C2=CC(=O)N(C(=O)C=Cc3ccccc3C(F)(F)F)CC(C)(C)C23CCC1C3 (stereo not drawn) [E11, 5,5,9,9-Tetramethyl-3-(3-(2-(trifluoromethyl)phenyl)acryloyl)-4,5,6,7,8,9-hexahydro-5a,8-methanobenzo[d]azepin-2(3H)-one]",–,5630 ± 300,> 20,18.3 ± 0.21,4.53 ± 0.12,–,–,–,–
"CC1(C)C2=CC(=O)N(C(=O)C=Cc3cccc(Br)c3)CC(C)(C)C23CCC1C3 (stereo not drawn) [E12, 5,5,9,9-Tetramethyl-3-(3-(3-bromophenyl)acryloyl)-4,5,6,7,8,9-hexahydro-5a,8-methanobenzo[d]azepin-2(3H)-one]",–,1260 ± 190,11.26 ± 0.06,3.55 ± 0.04,4.89 ± 0.52,–,–,–,–
"CC1(C)C2=CC(=O)N(C(=O)C=Cc3ccccc3Br)CC(C)(C)C23CCC1C3 (stereo not drawn) [E13, 5,5,9,9-Tetramethyl-3-(3-(2-bromophenyl)acryloyl)-4,5,6,7,8,9-hexahydro-5a,8-methanobenzo[d]azepin-2(3H)-one]",–,2120 ± 40,> 20,4.64 ± 0.06,2.67 ± 0.16,–,–,–,–
"CC1(C)C2=CC(=O)N(C(=O)C=Cc3ccc(Br)cc3)CC(C)(C)C23CCC1C3 (stereo not drawn) [E14, 5,5,9,9-Tetramethyl-3-(3-(4-bromophenyl)acryloyl)-4,5,6,7,8,9-hexahydro-5a,8-methanobenzo[d]azepin-2(3H)-one]",–,1270 ± 40,> 20,3.21 ± 0.16,2.38 ± 0.16,–,–,–,–
"CC1(C)C2=CC(=O)N(C(=O)C=Cc3ccccc3Cl)CC(C)(C)C23CCC1C3 (stereo not drawn) [E15, 5,5,9,9-Tetramethyl-3-(3-(2-chlorophenyl)acryloyl)-4,5,6,7,8,9-hexahydro-5a,8-methanobenzo[d]azepin-2(3H)-one]",–,1580 ± 160,> 20,3.47 ± 0.16,2.09 ± 0.16,–,–,–,–
"COc1ccc(C=CC(=O)N2CC(C)(C)C34CCC(C3)C(C)(C)C4=CC2=O)cc1 (stereo not drawn) [E16, 5,5,9,9-Tetramethyl-3-(3-(4-methoxyphenyl)acryloyl)-4,5,6,7,8,9-hexahydro-5a,8-methanobenzo[d]azepin-2(3H)-one]",–,2670 ± 180,> 20,5.28 ± 0.1,2.44 ± 0.16,–,–,–,–
"COc1ccc(C=CC(=O)N2CC(C)(C)C34CCC(C3)C(C)(C)C4=CC2=O)cc1OC (stereo not drawn) [E17, 5,5,9,9-Tetramethyl-3-(3-(3,4-dimethoxyphenyl)acryloyl)-4,5,6,7,8,9-hexahydro-5a,8-methanobenzo[d]azepin-2(3H)-one]",–,2160 ± 30,> 20,5.28 ± 0.08,2.56 ± 0.16,good anticancer activity,–,–,–
"CC1(C)C2=CC(=O)N(C(=O)C=Cc3cccnc3)CC(C)(C)C23CCC1C3 (stereo not drawn) [E18, 5,5,9,9-Tetramethyl-3-(3-(pyridin-3-yl)acryloyl)-4,5,6,7,8,9-hexahydro-5a,8-methanobenzo[d]azepin-2(3H)-one]",–,> 20000,> 20,> 20,> 20,entirely lost,–,–,–
"CC1(C)C2=CC(=O)N(C(=O)C=Cc3ccc(F)c(F)c3)CC(C)(C)C23CCC1C3 (stereo not drawn) [E19, 5,5,9,9-Tetramethyl-3-(3-(3,4-difluorophenyl)acryloyl)-4,5,6,7,8,9-hexahydro-5a,8-methanobenzo[d]azepin-2(3H)-one]",–,17070 ± 60,> 20,18.9 ± 0.16,18.43 ± 0.16,good anticancer activity,–,–,–
"COc1cc(/C=C/C(=O)N2CCC=CC2=O)cc(OC)c1OC [PL, Piperlongumine, reference compound]",–,–,–,–,–,–,2790 ± 430,5.83 ± 0.26,3.46 ± 0.25
